Patent publication US11839613B2, “Pyrimidine derivatives as PGE2 receptor modulators” (IDORSIA PHARMACEUTICALS LTD, priority 2017, dated 2023)

Experiments:
Assay type in all cases: cell-based
PTGER2 (EP2) = PTGER2 (EP2) (Homo sapiens (Human), UniProt P43116); experiment: hEP2 b-arrestin assay (PathHunter HEK 293 PTGER2 b-arrestin cells); settings: antagonistic activity, beta-arrestin assay; read-out: hEP2 b-arr IC50
Protocol: Plate is pre-incubated 15 minutes at 37° C. Then five microliters of PGE2 (final conc. 5 μM) are transferred into the assay plate. Plate is incubated 120 minutes at 37° C.
(each concentration is measured in duplicate)

EP2 = EP2 (Homo sapiens (Human), UniProt P43116); experiment: hEP2 cAMP assay (SF295 glioblastoma cells, HTRF cAMP); settings: antagonistic activity
Chain of EP2 (P43116 whole entry): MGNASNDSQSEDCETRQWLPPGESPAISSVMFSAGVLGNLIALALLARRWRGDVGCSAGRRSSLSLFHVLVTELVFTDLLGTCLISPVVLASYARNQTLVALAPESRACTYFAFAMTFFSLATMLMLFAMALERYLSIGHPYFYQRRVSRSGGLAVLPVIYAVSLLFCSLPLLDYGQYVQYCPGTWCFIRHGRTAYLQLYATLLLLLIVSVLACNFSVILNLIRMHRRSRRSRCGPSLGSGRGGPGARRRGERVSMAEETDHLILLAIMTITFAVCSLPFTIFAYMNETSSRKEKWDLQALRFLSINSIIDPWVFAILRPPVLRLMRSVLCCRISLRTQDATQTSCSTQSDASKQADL
Source text: (§1) Human tumor cell lines expressing endogenously either EP4 or EP2 are used and cAMP accumulation in cells upon PGE2 stimulation is monitored. SF295 glioblastoma cells express high endogenous EP2 and no EP4, whereas BT549 breast cancer cells, express high endogenous EP4 levels and very low EP2 levels.
(§2) As a detection method for cAMP the HTRF (homogeneous time resolved fluorescence) Cisbio kit (HTRF cAMP dynamic 2 kit 20'000 tests Cisbio Cat. #62AM4PEC) was used, which is based on a competitive immunoassay using a Cryptate-labeled anti-cAMP antibody and d2-labeled cAMP. Native cAMP produced by cells or unlabeled cAMP (for the standard curve) compete with exogenously added d2-labeled cAMP (acceptor) for binding to monoclonal anti-cAMP-Eu3+Cryptate (donor). A FRET signal (Fluorescence Resonance Energy Transfer) is obtained only if the labeled anti-cAMP antibody binds the d2 labelled cAMP, thus the specific signal (i.e. energy transfer) is inversely proportional to the concentration of cAMP in the standard or sample.
(§3) Cells are counted washed and resuspended in assay buffer (AB; HBSS, 20 mM HEPES, 0.2% BSA; 2 mM IBMX).
Plate is pre-incubated 45 minutes at RT. […] Plate is incubated 30 minutes at RT.

EP4 = EP4 (Homo sapiens (Human), UniProt P35408); experiment: hEP4 cAMP assay (BT549 breast cancer cells, HTRF cAMP); settings: antagonistic activity, PGE2 6 nM
Chain of EP4 (P35408 whole entry): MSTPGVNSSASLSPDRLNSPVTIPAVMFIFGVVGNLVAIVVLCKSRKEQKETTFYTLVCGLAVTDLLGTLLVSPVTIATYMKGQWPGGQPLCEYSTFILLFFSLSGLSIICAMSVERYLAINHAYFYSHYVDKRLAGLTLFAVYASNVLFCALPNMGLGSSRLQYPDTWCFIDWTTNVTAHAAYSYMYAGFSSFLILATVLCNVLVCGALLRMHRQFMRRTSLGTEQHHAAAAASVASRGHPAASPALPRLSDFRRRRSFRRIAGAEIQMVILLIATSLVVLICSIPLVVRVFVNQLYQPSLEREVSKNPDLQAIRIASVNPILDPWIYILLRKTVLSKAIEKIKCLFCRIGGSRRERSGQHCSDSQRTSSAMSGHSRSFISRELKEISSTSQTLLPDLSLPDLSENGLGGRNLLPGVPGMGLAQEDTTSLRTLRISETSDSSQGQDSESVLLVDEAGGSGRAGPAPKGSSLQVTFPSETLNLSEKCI
Source text: as §1, §2, §3
Plate is pre-incubated 45 minutes at RT. Subsequently, 2.5 microliters of PGE2 (final conc. 6 nM) are transferred into the assay plate. Plate is incubated 30 minutes at RT.

Chain of PTGER2 (EP2) (P43116 whole entry): as the sequence (P43116 whole entry) above

With COc1cc2c(cc1CCNc1cc(-c3ccc(C(=O)O)c(OC4CCC4)c3)ncn1)OCO2 [Ex 213, 2-Cyclobutoxy-4-{6-[2-(6-methoxy-benzo[1,3]dioxol-5-yl)-ethylamino]-pyrimidin-4-yl}-benzoic acid] the IC50 (PTGER2 (EP2)) was 59 nM, the IC50 (EP2) was 46 nM and the IC50 (EP4) was 256 nM.
With CCOc1cc(-c2cc(NCCc3cc4c(cc3OC(F)F)OCO4)ncn2)ccc1OCC(=O)O [Ex 217] the IC50 (PTGER2 (EP2)) was 238 nM, the IC50 (EP2) was 321 nM and the IC50 (EP4) was 272 nM.
CCOc1cc(-c2cc(NCCc3ccc4ccccc4c3C)ncn2)ccc1-c1noc(O)n1 [Ex 220] was tested, and the IC50 (PTGER2 (EP2)) was 113 nM, the IC50 (EP2) was 141 nM and the IC50 (EP4) was 283 nM.
For CCOc1cc(-c2cc(NCCc3c(OC)cc4occc4c3C)ncn2)ccc1C(=O)O [Ex 221, 2-Ethoxy-4-{6-[2-(6-methoxy-4-methyl-benzofuran-5-yl)-ethylamino]-pyrimidin-4-yl}-benzoic acid], the IC50 (PTGER2 (EP2)) was 8 nM, the IC50 (EP2) was 2 nM and the IC50 (EP4) was 285 nM.
With CCOc1cc(-c2cc(NCCc3ccc4cc[nH]c4c3)ncn2)ccc1OC(C)C(=O)O (centres unmarked) [Ex 223] the IC50 (PTGER2 (EP2)) was 329 nM, the IC50 (EP2) was 199 nM and the IC50 (EP4) was 288 nM.
Work on c1nc(NCCc2ccc3cc[nH]c3c2)cc(-c2ccc3[nH]ccc3c2)n1 [Ex 226, [2-(1H-Indol-6-yl)-ethyl]-[6-(1H-indol-5-yl)-pyrimidin-4-yl]-amine] yielded an IC50 (PTGER2 (EP2)) of 151 nM, an IC50 (EP2) of 250 nM and an IC50 (EP4) of 291 nM.
CCOc1cc(-c2cc(NCCc3cc4ccoc4cc3F)ncn2)ccc1C(=O)O [Ex 227, 2-Ethoxy-4-{6-[2-(6-fluoro-benzofuran-5-yl)-ethylamino]-pyrimidin-4-yl}-benzoic acid] showed an IC50 (PTGER2 (EP2)) of 142 nM, an IC50 (EP2) of 88 nM and an IC50 (EP4) of 293 nM.
O=C(O)c1ccc(-c2cc(NCCc3c(F)cc4ncccc4c3F)ncn2)cc1OC1CCC1 [Ex 228] gave an IC50 (PTGER2 (EP2)) of 392 nM, an IC50 (EP2) of 194 nM and an IC50 (EP4) of 300 nM.
Compound CCOc1cc(-c2cc(NCCc3cc4ccoc4cc3OC)ncn2)ccc1OC(C)C(=O)O (centres unmarked) [Ex 233, 2-(2-Ethoxy-4-{6-[2-(6-methoxy-benzofuran-5-yl)-ethylamino]-pyrimidin-4-yl}-phenoxy)-propionic acid] has an IC50 (PTGER2 (EP2)) of 29 nM, an IC50 (EP2) of 76 nM and an IC50 (EP4) of 322 nM.
For CCOc1cc(-c2cc(NCCc3cc4ccoc4cc3F)ncn2)ccc1OC(C)C(=O)O (centres unmarked) [Ex 236], the IC50 (PTGER2 (EP2)) was 121 nM, the IC50 (EP2) was 147 nM and the IC50 (EP4) was 327 nM.
CSc1cc(-c2cc(NCCc3cc4ccoc4cc3F)ncn2)ccc1C(=O)O [Ex 238, 4-{6-[2-(6-Fluoro-benzofuran-5-yl)-ethylamino]-pyrimidin-4-yl}-2-methylsulfanyl-benzoic acid] gave an IC50 (PTGER2 (EP2)) of 55 nM, an IC50 (EP2) of 75 nM and an IC50 (EP4) of 343 nM.
Work on CCOc1cc(-c2cc(NCCc3cc4c(cc3OC)OCO4)ncn2)ccc1OCC(=O)O [Ex 239] yielded an IC50 (PTGER2 (EP2)) of 134 nM, an IC50 (EP2) of 222 nM and an IC50 (EP4) of 346 nM.
For Cn1[nH]c(=O)c2ccc(-c3cc(NCCc4ccc5cc[nH]c5c4)ncn3)cc21 [Ex 249], the IC50 (PTGER2 (EP2)) was 196 nM, the IC50 (EP2) was 171 nM and the IC50 (EP4) was 368 nM.
Compound CCOc1cc(-c2cc(NCCc3cc4c(cnn4C)cc3OC)ncn2)sc1C(=O)O [Ex 251] has an IC50 (PTGER2 (EP2)) of 105 nM, an IC50 (EP2) of 132 nM and an IC50 (EP4) of 369 nM.
For CC(C)Oc1cc2ccccc2cc1CCNc1cc(-c2ccc(C(=O)O)c(OC3CCC3)c2)ncn1 [Ex 264], the IC50 (EP2) was 11800 nM and the IC50 (EP4) was 425 nM.
Work on O=C(O)c1ccc(-c2cc(NCCc3ccc4c(c3)OCCC4)ncn2)cc1OC1CCC1 [Ex 265, 4-[6-(2-Chroman-7-yl-ethylamino)-pyrimidin-4-yl]-2-cyclobutoxy-benzoic acid] yielded an IC50 (EP2) of 11400 nM and an IC50 (EP4) of 428 nM.
c1nc(NCCc2ccc3cc[nH]c3c2)cc(-c2ccc3cc[nH]c3c2)n1 [Ex 267, [2-(1H-Indol-6-yl)-ethyl]-[6-(1H-indol-6-yl)-pyrimidin-4-yl]-amine] was tested, and the IC50 (EP2) was 306 nM and the IC50 (EP4) was 431 nM.
For CCOc1cc(-c2cc(NCCc3ccc4cc[nH]c4c3)ncn2)ccc1CC(=O)O [Ex 271], the IC50 (EP2) was 638 nM and the IC50 (EP4) was 439 nM.
CCSc1cc(-c2cc(NCCc3cc4ccoc4cc3F)ncn2)ccc1C(=O)O [Ex 275] was tested, and the IC50 (PTGER2 (EP2)) was 67 nM, the IC50 (EP2) was 102 nM and the IC50 (EP4) was 468 nM.
With COc1cc2cc(F)oc2cc1CCNc1cc(-c2ccc(C(=O)O)c(OC3CCC3)c2)ncn1 [Ex 280] the IC50 (EP2) was 514 nM and the IC50 (EP4) was 491 nM.
Compound CCOc1cc(-c2cc(NCCc3cc4ccccc4cc3OC)ncn2)cc(OC)c1C(=O)O [Ex 282] has an IC50 (EP2) of 296 nM and an IC50 (EP4) of 498 nM.
Work on COc1cc(-c2cc(NCCc3cc4cccnc4cc3F)ncn2)sc1C1(O)COC1 [Ex 283] yielded an IC50 (EP2) of 618 nM and an IC50 (EP4) of 502 nM.
NC(=O)c1ccc(-c2cc(NCCc3ccc4cc[nH]c4c3)ncn2)s1 [Ex 294, 5-{6-[2-(1H-Indol-6-yl)-ethylamino]-pyrimidin-4-yl}-thiophene-2-carboxylic acid amide] was tested, and the IC50 (EP2) was 786 nM and the IC50 (EP4) was 561 nM.
With CCOc1cc(-c2cc(NCCc3cc4c(cnn4C)cc3OC)ncn2)ccc1OCC(=O)O [Ex 298] the IC50 (EP2) was 716 nM and the IC50 (EP4) was 613 nM.
COc1cc2ccccc2cc1CCNc1cc(-c2cc(OC)c(C(=O)O)c(OC)c2)ncn1 [Ex 300] showed an IC50 (EP2) of 312 nM and an IC50 (EP4) of 624 nM.
Work on CCOc1cc(-c2cc(NCCc3cc4cccnc4c(F)c3Cl)ncn2)ccc1OCC(=O)O [Ex 301] yielded an IC50 (EP2) of 425 nM and an IC50 (EP4) of 626 nM.
Cc1c(CCNc2cc(-c3ccc(-c4nc(O)no4)cc3)ncn2)ccc2ccccc12 [Ex 302] was tested, and the IC50 (EP2) was 384 nM and the IC50 (EP4) was 520 nM.
For CCOc1cc(-c2cc(NCCc3c(F)cc4ncccc4c3F)ncn2)ccc1C(=O)O [Ex 304], the IC50 (EP2) was 408 nM and the IC50 (EP4) was 652 nM.
Work on Oc1c(F)cc(-c2cc(NCCc3ccc4cc[nH]c4c3)ncn2)cc1F [Ex 307, 2,6-Difluoro-4-{6-[2-(1H-indol-6-yl)-ethylamino]-pyrimidin-4-yl}-phenol] yielded an IC50 (EP2) of 677 nM and an IC50 (EP4) of 658 nM.
In the case of CCOc1cc(-c2cc(NCCc3ccc4c(c3)OCCC4)ncn2)ccc1C(=O)O [Ex 309, 4-[6-(2-Chroman-7-yl-ethylamino)-pyrimidin-4-yl]-2-ethoxy-benzoic acid], the IC50 (EP2) is reported as over 27700 nM and the IC50 (EP4) is reported as 677 nM.
Work on CCOc1cc(-c2cc(NCCc3cc4c(cc3OC)OCCO4)ncn2)ccc1OC(C)(C)C(=O)O [Ex 313] yielded an IC50 (EP2) of 273 nM and an IC50 (EP4) of 691 nM.
For CCOc1cc(-c2cc(NCCc3ccc4ccccc4c3C)ncn2)sc1CC(=O)OC [Ex 316], the IC50 (EP2) was 792 nM and the IC50 (EP4) was 729 nM.
COc1cc(-c2cc(NCCc3ccc4sccc4c3)ncn2)cc(OC)c1C(=O)O [Ex 320, 4-[6-(2-Benzo[b]thiophen-5-yl-ethylamino)-pyrimidin-4-yl]-2,6-dimethoxy-benzoic acid] showed an IC50 (EP2) of 440 nM and an IC50 (EP4) of 766 nM.
CCOc1cc(-c2cc(NCCc3ccc4sccc4c3)ncn2)ccc1OC(C)(C)C(=O)O [Ex 321] gave an IC50 (EP2) of 562 nM and an IC50 (EP4) of 772 nM.
O=C(O)c1ccc(-c2cc(NCCc3ccc4[nH]ccc4c3)ncn2)cc1OC1CCC1 [Ex 322, 2-Cyclobutoxy-4-{6-[2-(1H-indol-5-yl)-ethylamino]-pyrimidin-4-yl}-benzoic acid] gave an IC50 (EP2) of 809 nM and an IC50 (EP4) of 814 nM.
CCOc1cc(-c2cc(NCCc3cc(Cl)c4c(c3)OCCO4)ncn2)ccc1C(=O)O [Ex 324] gave an IC50 (EP2) of 899 nM and an IC50 (EP4) of 858 nM.
Work on NC(=O)c1ccc(-c2cc(NCCc3c(F)cc4ncccc4c3F)ncn2)s1 [Example 356, 5-{6-[2-(5,7-Difluoro-quinolin-6-yl)-ethylamino]-pyrimidin-4-yl}-thiophene-2-carboxylic acid amide] yielded an IC50 (EP2) of 2340 nM and an IC50 (EP4) of 828 nM.
